Tested on: Symptome des Heuschnupfens
Conditions: alone or together, without Hydroxiphenylalkanolamin

With `Cc1ncc(C[n+]2csc(CCO)c2C)c(N)n1` [Vitamin B₁] the “die Symptome des Heuschnupfens lindernde Wirkung” value was “weder alleine noch gemeinsam miteinander”.
